The values that follow come from the NIST ThermoML archive (doi:10.1016/j.jct.2012.04.018).

The structures appear in SMILES notation. ± gives the expanded uncertainty stated by the source.

A short description of this data set: refractive index (other wavelength) (dimensionless). Particulars: 100 kPa, Liquid, Wavelength=632.8 nm, He-Ne laser.

On to `N#Cc1ccccc1` [benzonitrile], for which the refractive index is 1.5309 ± 0.0003 (280.98 K); 1.5304 ± 0.0003 (281.89 K); 1.5296 ± 0.0003 (283.78 K); 1.5284 ± 0.0003 (286.19 K); 1.5275 ± 0.0003 (288.04 K); 1.5266 ± 0.0003 (290.13 K).

On to `CCCCCCCCCCC` [undecane], for which the refractive index is 1.4216 ± 0.0003 (280.08 K); 1.4209 ± 0.0003 (281.97 K); 1.4201 ± 0.0003 (283.66 K); 1.4192 ± 0.0003 (285.71 K); 1.4182 ± 0.0003 (287.84 K); 1.4171 ± 0.0003 (290.47 K).

The refractive index is a measure of how strongly the sample bends light.
